{"source": "ChEMBL document CHEMBL4257568", "about": "“Synthesis, hepatotoxic evaluation and antipyretic activity of nitrate ester analogs of the acetaminophen derivative SCP-1” (Bioorg Med Chem Lett, 2018)", "key": {"HepaRG [1]": {"system": "HepaRG", "experiment": "Hepatotoxicity in human HepaRG cells assessed as GSH depletion at 500 uM after 3 to 12 hrs by ThiolTracker Violet dye-based fluorescence assay", "format": "toxicity, cell-based"}, "HepaRG [2]": {"system": "HepaRG", "experiment": "Hepatotoxicity in human HepaRG cells assessed as GSH depletion at 500 uM measured over 12 hrs by ThiolTracker Violet dye-based fluorescence assay", "format": "toxicity, cell-based"}, "Cytochrome P450 3A4": {"molecular_target": "Cytochrome P450 3A4 (Homo sapiens, UniProt P08684)", "sequence (P08684 whole entry)": "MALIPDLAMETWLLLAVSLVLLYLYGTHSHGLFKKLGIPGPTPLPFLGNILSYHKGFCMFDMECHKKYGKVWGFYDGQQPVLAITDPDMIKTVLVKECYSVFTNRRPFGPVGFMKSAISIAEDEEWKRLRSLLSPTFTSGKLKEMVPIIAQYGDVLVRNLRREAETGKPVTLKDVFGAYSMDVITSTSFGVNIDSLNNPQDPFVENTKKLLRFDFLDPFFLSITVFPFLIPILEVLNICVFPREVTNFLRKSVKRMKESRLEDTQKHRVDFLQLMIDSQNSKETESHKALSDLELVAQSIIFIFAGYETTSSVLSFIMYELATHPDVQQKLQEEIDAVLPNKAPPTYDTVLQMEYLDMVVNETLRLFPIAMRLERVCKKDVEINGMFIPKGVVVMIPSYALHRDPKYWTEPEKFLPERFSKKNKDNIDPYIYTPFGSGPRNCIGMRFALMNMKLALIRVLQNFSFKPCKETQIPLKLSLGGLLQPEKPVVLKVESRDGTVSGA", "experiment": "Inhibition of human CYP3A4 expressed in baculosomes at 1 uM using BOMCC as substrate preincubated for 20 mins followed by substrate and NADP+ addition and measured after 30 mins by fluorescence assay", "format": "ADME", "conditions": "recombinant enzyme, 0.5 h"}, "HepaRG [3]": {"system": "HepaRG", "experiment": "Hepatotoxicity in human HepaRG cells assessed as necrotic cell death at 500 uM measured over 12 hrs by LDH assay", "format": "toxicity, cell-based"}, "HepaRG [4]": {"system": "HepaRG", "experiment": "Hepatotoxicity in human HepaRG cells assessed as GSH depletion at 1000 uM after 12 hrs by ThiolTracker Violet dye-based fluorescence assay", "format": "toxicity, cell-based"}, "HepaRG [5]": {"system": "HepaRG", "experiment": "Hepatotoxicity in human HepaRG cells assessed as necrotic cell death at 1000 uM measured over 12 hrs by LDH assay", "format": "toxicity, cell-based"}, "Mus musculus": {"system": "Mus musculus", "experiment": "Antipyretic activity in LPS-induced CD1 mouse fever model assessed as effect on rectal temperature at 50 ug/kg, po administered as single dose and measured every 2 hrs up to 24 hrs", "format": "functional, organism-based"}, "Cytochrome P450 2E1": {"molecular_target": "Cytochrome P450 2E1 (Homo sapiens, UniProt P05181)", "sequence (P05181 whole entry)": "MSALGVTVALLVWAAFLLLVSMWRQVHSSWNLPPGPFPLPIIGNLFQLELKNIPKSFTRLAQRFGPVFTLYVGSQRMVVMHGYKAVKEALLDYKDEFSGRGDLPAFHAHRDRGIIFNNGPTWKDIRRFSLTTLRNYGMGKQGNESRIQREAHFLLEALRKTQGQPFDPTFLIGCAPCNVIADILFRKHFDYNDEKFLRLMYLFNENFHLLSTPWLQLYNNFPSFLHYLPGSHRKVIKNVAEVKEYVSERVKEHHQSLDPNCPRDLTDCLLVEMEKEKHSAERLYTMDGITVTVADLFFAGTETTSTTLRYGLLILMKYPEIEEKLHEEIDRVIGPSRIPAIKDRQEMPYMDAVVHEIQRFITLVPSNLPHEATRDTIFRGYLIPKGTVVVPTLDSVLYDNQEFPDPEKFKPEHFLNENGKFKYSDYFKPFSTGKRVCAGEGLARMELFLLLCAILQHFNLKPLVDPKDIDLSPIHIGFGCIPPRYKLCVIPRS", "experiment": "Inhibition of human CYP2E1 expressed in baculosomes at 1 uM using EOMCC as substrate preincubated for 20 mins followed by substrate and NADP+ addition and measured after 30 mins by fluorescence assay", "format": "ADME", "conditions": "recombinant enzyme, 0.5 h"}, "Cytochrome P450 2D6": {"molecular_target": "Cytochrome P450 2D6 (Homo sapiens, UniProt P10635)", "sequence (P10635 whole entry)": "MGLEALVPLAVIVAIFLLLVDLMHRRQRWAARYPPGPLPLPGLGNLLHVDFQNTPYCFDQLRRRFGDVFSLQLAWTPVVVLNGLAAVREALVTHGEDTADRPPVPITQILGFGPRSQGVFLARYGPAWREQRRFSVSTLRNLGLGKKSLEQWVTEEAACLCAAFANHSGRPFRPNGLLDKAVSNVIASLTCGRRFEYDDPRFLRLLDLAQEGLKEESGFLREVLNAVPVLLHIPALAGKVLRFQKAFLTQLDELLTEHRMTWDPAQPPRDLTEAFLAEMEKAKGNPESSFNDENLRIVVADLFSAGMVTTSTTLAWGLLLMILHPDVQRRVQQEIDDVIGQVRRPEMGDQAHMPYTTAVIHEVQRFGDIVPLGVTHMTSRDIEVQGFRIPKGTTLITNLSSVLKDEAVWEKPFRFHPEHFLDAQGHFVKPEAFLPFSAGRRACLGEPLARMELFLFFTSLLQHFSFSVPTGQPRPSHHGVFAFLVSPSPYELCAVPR", "experiment": "Inhibition of human CYP2D6 expressed in baculosomes at 1 uM using MOBFC as substrate preincubated for 20 mins followed by substrate and NADP+ addition and measured after 30 mins by fluorescence assay", "format": "ADME", "conditions": "recombinant enzyme, 0.5 h"}}, "note": "Active and inactive are the calls of the source. The calls are words filed in the database; no cut-off is given here."}
{"smiles": "CC(=O)Nc1ccc(O)cc1", "note": "[ACETAMINOPHEN]", "values": [{"measurement": "Activity", "setting": "HepaRG [1]", "result": "Toxic"}, {"measurement": "Activity", "setting": "HepaRG [2]", "result": "Toxic"}, {"measurement": "inhibition (INH)", "setting": "Cytochrome P450 3A4", "result": "Active"}, {"measurement": "Activity", "setting": "HepaRG [3]", "result": "Toxic"}, {"measurement": "Activity", "setting": "HepaRG [4]", "result": "Toxic"}, {"measurement": "Activity", "setting": "HepaRG [5]", "result": "Toxic"}, {"measurement": "Activity", "setting": "Mus musculus", "result": "Active"}, {"measurement": "inhibition (INH)", "setting": "Cytochrome P450 2E1", "result": "Active"}]}
{"smiles": "O=C(CN1C(=O)c2ccccc2S1(=O)=O)Nc1ccc(OC(=O)CCO[N+](=O)[O-])cc1", "values": [{"measurement": "inhibition (INH)", "setting": "Cytochrome P450 2D6", "result": "Not Active"}, {"measurement": "Activity", "setting": "HepaRG [1]", "result": "Non-Toxic"}, {"measurement": "Activity", "setting": "HepaRG [2]", "result": "Non-Toxic"}, {"measurement": "inhibition (INH)", "setting": "Cytochrome P450 3A4", "result": "Not Active"}, {"measurement": "Activity", "setting": "HepaRG [3]", "result": "Non-Toxic"}, {"measurement": "Activity", "setting": "HepaRG [4]", "result": "Non-Toxic"}, {"measurement": "Activity", "setting": "HepaRG [5]", "result": "Non-Toxic"}, {"measurement": "Activity", "setting": "Mus musculus", "result": "inactive"}, {"measurement": "inhibition (INH)", "setting": "Cytochrome P450 2E1", "result": "Not Active"}]}
{"smiles": "O=C(CN1C(=O)c2ccccc2S1(=O)=O)Nc1ccc(O)cc1", "values": [{"measurement": "inhibition (INH)", "setting": "Cytochrome P450 2D6", "result": "Not Active"}, {"measurement": "Activity", "setting": "HepaRG [1]", "result": "Toxic"}, {"measurement": "Activity", "setting": "HepaRG [2]", "result": "Toxic"}, {"measurement": "inhibition (INH)", "setting": "Cytochrome P450 3A4", "result": "Not Active"}, {"measurement": "Activity", "setting": "HepaRG [3]", "result": "Non-Toxic"}, {"measurement": "Activity", "setting": "HepaRG [4]", "result": "Non-Toxic"}, {"measurement": "Activity", "setting": "HepaRG [5]", "result": "Toxic"}, {"measurement": "inhibition (INH)", "setting": "Cytochrome P450 2E1", "result": "Not Active"}]}
{"smiles": "O=C(CN1C(=O)c2ccccc2S1(=O)=O)Nc1ccc(OC(=O)CCCO[N+](=O)[O-])cc1", "values": [{"measurement": "inhibition (INH)", "setting": "Cytochrome P450 2D6", "result": "Not Active"}, {"measurement": "Activity", "setting": "HepaRG [1]", "result": "Non-Toxic"}, {"measurement": "Activity", "setting": "HepaRG [2]", "result": "Non-Toxic"}, {"measurement": "inhibition (INH)", "setting": "Cytochrome P450 3A4", "result": "Not Active"}, {"measurement": "Activity", "setting": "HepaRG [3]", "result": "Toxic"}, {"measurement": "Activity", "setting": "HepaRG [4]", "result": "Non-Toxic"}, {"measurement": "Activity", "setting": "Mus musculus", "result": "Active"}, {"measurement": "inhibition (INH)", "setting": "Cytochrome P450 2E1", "result": "Not Active"}]}
